# Assay results as given in patent US20250353891A1 (MEDIMMUNE LIMITED, priority 2022, published 2025).
# Starred links: 1 amine or outer side, 2 acyl side, 3 side chain; linkers in the order of their positions; H or OH if unused. Non-standard residues stand in square brackets, D forms with d. Residues, ends and D or L forms follow the SMILES beside them. Groups on a side chain read outwards from the residue. *: point of attachment. C20 diacid = O=C(O)CCCCCCCCCCCCCCCCCCC(=O)*; C18 diacid = O=C(O)CCCCCCCCCCCCCCCCC(=O)*; γGlu = O=C(O)[C@H](CCC(=O)[*:2])N[*:1]; αMeF = C[C@](N)(Cc1ccccc1)C(=O)O; AEEA = NCCOCCOCC(=O)O; Aib = CC(C)(N)C(=O)O
# Legend:
# [1] = target: human glucagon receptor (hGCGR) (Homo sapiens, UniProt P47871); assay: cAMP production (HTRF) in CHO cells expressing hGCGR; assay type: cell-based; set-up: expressed in transfected cells; conditions: Table 6, peptides modified at position 17; cAMP in CHO hGCGR cells; geometric mean; read-out: hGluc-R EC50
# How it was run: (§1)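 Read-out: HTRF cAMP (anti-cAMP cryptate donor, cAMP-d2 acceptor in conjugate/lysis buffer), converted to % Delta F and fitted by 4-parameter logistic for EC50. Cell densities were 1×10^5 cells/mL (hGLP-1R) or 2×10^5 cells/mL (hGCGR). Stimulation lasted 30 min at room temperature.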
# [2] = target: human GLP-1 receptor (hGLP-1R) (Homo sapiens, UniProt P43220); assay: cAMP production (HTRF) in CHO cells expressing hGLP-1R; assay type: cell-based; set-up: expressed in transfected cells; conditions: for EC50: Table 6, peptides modified at position 17, cAMP in CHO hGLP-1R cells, geometric mean, read-out: hGLP-1R EC50; for % Relative Potency Ratio: Table 6, % GLP-1R activity relative to GLP-1 / % GlucR activity relative to glucagon
# How it was run: as §1
# Chain of human glucagon receptor (hGCGR) (P47871 26-477): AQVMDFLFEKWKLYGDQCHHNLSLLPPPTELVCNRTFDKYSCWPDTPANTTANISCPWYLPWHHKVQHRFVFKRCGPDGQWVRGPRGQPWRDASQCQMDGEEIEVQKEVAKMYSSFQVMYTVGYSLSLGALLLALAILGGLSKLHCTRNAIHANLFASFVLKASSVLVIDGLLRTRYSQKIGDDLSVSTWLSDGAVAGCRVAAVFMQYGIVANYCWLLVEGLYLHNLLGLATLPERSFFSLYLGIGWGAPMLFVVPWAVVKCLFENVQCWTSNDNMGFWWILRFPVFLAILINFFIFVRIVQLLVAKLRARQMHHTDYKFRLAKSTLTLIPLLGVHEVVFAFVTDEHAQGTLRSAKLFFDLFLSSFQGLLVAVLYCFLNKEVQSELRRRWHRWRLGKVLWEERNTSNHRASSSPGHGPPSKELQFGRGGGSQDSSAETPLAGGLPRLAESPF
# Chain of human GLP-1 receptor (hGLP-1R) (P43220 24-463): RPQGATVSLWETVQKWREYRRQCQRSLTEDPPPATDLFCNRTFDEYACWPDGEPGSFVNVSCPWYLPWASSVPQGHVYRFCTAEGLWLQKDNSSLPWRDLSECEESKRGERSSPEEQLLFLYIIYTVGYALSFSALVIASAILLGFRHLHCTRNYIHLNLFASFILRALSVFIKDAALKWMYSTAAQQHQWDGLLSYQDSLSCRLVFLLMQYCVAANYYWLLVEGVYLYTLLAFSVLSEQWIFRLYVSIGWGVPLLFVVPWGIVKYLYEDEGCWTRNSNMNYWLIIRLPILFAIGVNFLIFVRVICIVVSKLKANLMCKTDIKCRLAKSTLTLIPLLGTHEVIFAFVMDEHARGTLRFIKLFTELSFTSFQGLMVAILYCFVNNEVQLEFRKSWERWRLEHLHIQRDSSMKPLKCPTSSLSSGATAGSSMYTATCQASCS
smiles,measurement,setting,value
CC(C)C[C@H](NC(=O)[C@H](Cc1c[nH]c2ccccc12)NC(=O)[C@H](CCC(N)=O)NC(=O)[C@@H](NC(=O)[C@H](Cc1ccccc1)NC(=O)[C@H](CC(=O)O)NC(=O)[C@H](CCC(N)=O)NC(=O)[C@H](C)NC(=O)[C@H](CCCNC(=N)N)NC(=O)[C@H](CCCCNC(=O)COCCOCCNC(=O)COCCOCCNC(=O)CC[C@H](NC(=O)CC[C@H](NC(=O)CCCCCCCCCCCCCCCCCCC(=O)O)C(=O)O)C(=O)O)NC(=O)[C@@H](NC(=O)[C@H](CC(=O)O)NC(=O)[C@H](CC(C)C)NC(=O)[C@](C)(Cc1ccccc1)NC(=O)[C@H](CCCCN)NC(=O)[C@H](CO)NC(=O)[C@@H](NC(=O)[C@H](CC(=O)O)NC(=O)[C@H](CO)NC(=O)[C@@H](NC(=O)[C@H](Cc1ccccc1)NC(=O)[C@@H](NC(=O)CNC(=O)[C@H](CCC(N)=O)NC(=O)C(C)(C)NC(=O)[C@@H](N)Cc1c[nH]cn1)[C@@H](C)O)[C@@H](C)O)C(C)C)[C@@H](C)O)C(C)C)C(=O)N[C@@H](CC(C)C)C(=O)N[C@@H](CCC(=O)O)C(=O)NC(C)(C)C(=O)NCC(N)=O [Peptide 469] (H-H[Aib]QGTFTSDVSK[αMeF]LDTK([AEEA-AEEA-γGlu-γGlu-C20 diacid])RAQDFVQWLLE[Aib]G-NH2),EC50,[1],0.538 nM
same,EC50,[2],0.255 nM
same,% Relative Potency Ratio,[2],4.2
CC(C)C[C@H](NC(=O)[C@H](Cc1c[nH]c2ccccc12)NC(=O)[C@H](CCC(N)=O)NC(=O)[C@@H](NC(=O)[C@H](Cc1ccccc1)NC(=O)[C@H](CC(=O)O)NC(=O)[C@H](CCCNC(=N)N)NC(=O)[C@H](C)NC(=O)[C@H](CCCNC(=N)N)NC(=O)[C@H](CCCCNC(=O)COCCOCCNC(=O)COCCOCCNC(=O)CC[C@H](NC(=O)CCCCCCCCCCCCCCCCCCC(=O)O)C(=O)O)NC(=O)[C@H](CCCCN)NC(=O)[C@H](CC(=O)O)NC(=O)[C@H](CC(C)C)NC(=O)[C@](C)(Cc1ccccc1)NC(=O)[C@H](CCCCN)NC(=O)[C@H](CO)NC(=O)[C@@H](NC(=O)[C@H](CC(=O)O)NC(=O)[C@H](CO)NC(=O)[C@@H](NC(=O)[C@H](Cc1ccccc1)NC(=O)[C@@H](NC(=O)CNC(=O)[C@H](CCC(N)=O)NC(=O)C(C)(C)NC(=O)[C@@H](N)Cc1c[nH]cn1)[C@@H](C)O)[C@@H](C)O)C(C)C)C(C)C)C(=O)N[C@@H](CC(C)C)C(=O)NC(C)(C)C(=O)N[C@@H](CCC(=O)O)C(N)=O [Peptide 470] (H-H[Aib]QGTFTSDVSK[αMeF]LDKK([AEEA-AEEA-γGlu-C20 diacid])RARDFVQWLL[Aib]E-NH2; N-terminus assumed),EC50,[1],0.0303 nM
same,EC50,[2],0.0559 nM
same,% Relative Potency Ratio,[2],1.1
CC(C)C[C@H](NC(=O)[C@H](Cc1c[nH]c2ccccc12)NC(=O)[C@H](CCC(N)=O)NC(=O)[C@@H](NC(=O)[C@H](Cc1ccccc1)NC(=O)[C@H](CC(=O)O)NC(=O)[C@H](CCCNC(=N)N)NC(=O)[C@H](C)NC(=O)[C@H](CCCNC(=N)N)NC(=O)[C@H](CCCCNC(=O)COCCOCCNC(=O)COCCOCCNC(=O)CC[C@H](NC(=O)CCCCCCCCCCCCCCCCCCC(=O)O)C(=O)O)NC(=O)[C@H](CCCNC(=N)N)NC(=O)[C@H](CC(=O)O)NC(=O)[C@H](CC(C)C)NC(=O)[C@](C)(Cc1ccccc1)NC(=O)[C@H](CCCCN)NC(=O)[C@H](CO)NC(=O)[C@@H](NC(=O)[C@H](CC(=O)O)NC(=O)[C@H](CO)NC(=O)[C@@H](NC(=O)[C@H](Cc1ccccc1)NC(=O)[C@@H](NC(=O)CNC(=O)[C@H](CCC(N)=O)NC(=O)C(C)(C)NC(=O)[C@@H](N)Cc1c[nH]cn1)[C@@H](C)O)[C@@H](C)O)C(C)C)C(C)C)C(=O)N[C@@H](CC(C)C)C(=O)NC(C)(C)C(=O)N[C@@H](CCC(=O)O)C(N)=O [Peptide 471],EC50,[1],0.0636 nM
same,EC50,[2],0.102 nM
same,% Relative Potency Ratio,[2],1.2
CC(C)C[C@H](NC(=O)[C@H](Cc1c[nH]c2ccccc12)NC(=O)[C@H](CCC(N)=O)NC(=O)[C@@H](NC(=O)[C@H](Cc1ccccc1)NC(=O)[C@H](CC(=O)O)NC(=O)[C@H](CCCNC(=N)N)NC(=O)[C@H](C)NC(=O)[C@H](CCCNC(=N)N)NC(=O)[C@H](CCCCNC(=O)COCCOCCNC(=O)COCCOCCNC(=O)CC[C@H](NC(=O)CCCCCCCCCCCCCCCCC(=O)O)C(=O)O)NC(=O)[C@H](CCCNC(=N)N)NC(=O)[C@H](CC(=O)O)NC(=O)[C@H](CC(C)C)NC(=O)[C@](C)(Cc1ccccc1)NC(=O)[C@H](CCCCN)NC(=O)[C@H](CO)NC(=O)[C@@H](NC(=O)[C@H](CC(=O)O)NC(=O)[C@H](CO)NC(=O)[C@@H](NC(=O)[C@H](Cc1ccccc1)NC(=O)[C@@H](NC(=O)CNC(=O)[C@H](CCC(N)=O)NC(=O)C(C)(C)NC(=O)[C@@H](N)Cc1c[nH]cn1)[C@@H](C)O)[C@@H](C)O)C(C)C)C(C)C)C(=O)N[C@@H](CC(C)C)C(=O)NC(C)(C)C(=O)N[C@@H](CCC(=O)O)C(N)=O [Peptide 473] (H-H[Aib]QGTFTSDVSK[αMeF]LDRK([AEEA-AEEA-γGlu-C18 diacid])RARDFVQWLL[Aib]E-NH2; N-terminus assumed),EC50,[1],0.0141 nM
same,EC50,[2],0.0115 nM
same,% Relative Potency Ratio,[2],2.4
CC(C)C[C@H](NC(=O)[C@H](CC(C)C)NC(=O)[C@H](Cc1c[nH]c2ccccc12)NC(=O)[C@H](CCC(N)=O)NC(=O)[C@@H](NC(=O)[C@H](Cc1ccccc1)NC(=O)[C@H](CC(=O)O)NC(=O)[C@H](CCCNC(=N)N)NC(=O)[C@H](C)NC(=O)[C@H](CCCNC(=N)N)NC(=O)[C@H](CCCCNC(=O)COCCOCCNC(=O)COCCOCCNC(=O)CC[C@H](NC(=O)CCCCCCCCCCCCCCCCC(=O)O)C(=O)O)NC(=O)[C@@H](NC(=O)[C@H](CC(=O)O)NC(=O)[C@H](CC(C)C)NC(=O)[C@](C)(Cc1ccccc1)NC(=O)[C@H](CCCCN)NC(=O)[C@H](CO)NC(=O)[C@@H](NC(=O)[C@H](CC(=O)O)NC(=O)[C@H](CO)NC(=O)[C@@H](NC(=O)[C@H](Cc1ccccc1)NC(=O)[C@@H](NC(=O)CNC(=O)[C@H](CCC(N)=O)NC(=O)C(C)(C)NC(=O)[C@@H](N)Cc1c[nH]cn1)[C@@H](C)O)[C@@H](C)O)C(C)C)[C@@H](C)O)C(C)C)C(=O)N[C@@H](C)C(=O)NC(C)(C)C(=O)NCC(N)=O [Peptide 474] (H-H[Aib]QGTFTSDVSK[αMeF]LDTK([AEEA-AEEA-γGlu-C18 diacid])RARDFVQWLLA[Aib]G-NH2; N-terminus assumed),EC50,[1],0.0569 nM
same,EC50,[2],0.00804 nM
same,% Relative Potency Ratio,[2],14.0
CC(C)C[C@H](NC(=O)[C@H](CC(C)C)NC(=O)[C@H](Cc1c[nH]c2ccccc12)NC(=O)[C@H](CCC(N)=O)NC(=O)[C@@H](NC(=O)[C@H](Cc1ccccc1)NC(=O)[C@H](CC(=O)O)NC(=O)[C@H](CCCNC(=N)N)NC(=O)[C@H](C)NC(=O)[C@H](CCCNC(=N)N)NC(=O)[C@H](CCCCNC(=O)COCCOCCNC(=O)COCCOCCNC(=O)CC[C@H](NC(=O)CCCCCCCCCCCCCCCCCCC(=O)O)C(=O)O)NC(=O)[C@@H](NC(=O)[C@H](CC(=O)O)NC(=O)[C@H](CC(C)C)NC(=O)[C@](C)(Cc1ccccc1)NC(=O)[C@H](CCCCN)NC(=O)[C@H](CO)NC(=O)[C@@H](NC(=O)[C@H](CC(=O)O)NC(=O)[C@H](CO)NC(=O)[C@@H](NC(=O)[C@H](Cc1ccccc1)NC(=O)[C@@H](NC(=O)CNC(=O)[C@H](CCC(N)=O)NC(=O)C(C)(C)NC(=O)[C@@H](N)Cc1c[nH]cn1)[C@@H](C)O)[C@@H](C)O)C(C)C)[C@@H](C)O)C(C)C)C(=O)N[C@@H](C)C(=O)NC(C)(C)C(=O)NCC(N)=O [Peptide 475] (H-H[Aib]QGTFTSDVSK[αMeF]LDTK([AEEA-AEEA-γGlu-C20 diacid])RARDFVQWLLA[Aib]G-NH2),EC50,[1],0.0615 nM
same,EC50,[2],0.00675 nM
same,% Relative Potency Ratio,[2],18.0
CC(C)C[C@H](NC(=O)[C@H](CC(C)C)NC(=O)[C@H](Cc1c[nH]c2ccccc12)NC(=O)[C@H](CCCNC(=N)N)NC(=O)[C@@H](NC(=O)[C@H](Cc1ccccc1)NC(=O)[C@H](CC(=O)O)NC(=O)[C@H](CCC(N)=O)NC(=O)[C@H](C)NC(=O)[C@H](CCCNC(=N)N)NC(=O)[C@H](CCCCNC(=O)COCCOCCNC(=O)COCCOCCNC(=O)CC[C@H](NC(=O)CCCCCCCCCCCCCCCCC(=O)O)C(=O)O)NC(=O)[C@@H](NC(=O)[C@H](CC(=O)O)NC(=O)[C@H](CC(C)C)NC(=O)[C@](C)(Cc1ccccc1)NC(=O)[C@H](CCCCN)NC(=O)[C@H](CO)NC(=O)[C@@H](NC(=O)[C@H](CC(=O)O)NC(=O)[C@H](CO)NC(=O)[C@@H](NC(=O)[C@H](Cc1ccccc1)NC(=O)[C@@H](NC(=O)CNC(=O)[C@H](CCC(N)=O)NC(=O)C(C)(C)NC(=O)[C@@H](N)Cc1c[nH]cn1)[C@@H](C)O)[C@@H](C)O)C(C)C)[C@@H](C)O)C(C)C)C(=O)N[C@@H](C)C(=O)NC(C)(C)C(=O)NCC(N)=O [Peptide 476] (H-H[Aib]QGTFTSDVSK[αMeF]LDTK([AEEA-AEEA-γGlu-C18 diacid])RAQDFVRWLLA[Aib]G-NH2),EC50,[1],0.104 nM
same,EC50,[2],0.0573 nM
same,% Relative Potency Ratio,[2],3.6
CC(C)C[C@H](NC(=O)[C@H](Cc1c[nH]c2ccccc12)NC(=O)[C@H](CCCNC(=N)N)NC(=O)[C@@H](NC(=O)[C@H](Cc1ccccc1)NC(=O)[C@H](CC(=O)O)NC(=O)[C@H](CCC(N)=O)NC(=O)[C@H](C)NC(=O)[C@H](CCCNC(=N)N)NC(=O)[C@H](CCCCNC(=O)COCCOCCNC(=O)COCCOCCNC(=O)CC[C@H](NC(=O)CCCCCCCCCCCCCCCCC(=O)O)C(=O)O)NC(=O)[C@@H](NC(=O)[C@H](CC(=O)O)NC(=O)[C@H](CC(C)C)NC(=O)[C@](C)(Cc1ccccc1)NC(=O)[C@H](CCCCN)NC(=O)[C@H](CO)NC(=O)[C@@H](NC(=O)[C@H](CC(=O)O)NC(=O)[C@H](CO)NC(=O)[C@@H](NC(=O)[C@H](Cc1ccccc1)NC(=O)[C@@H](NC(=O)CNC(=O)[C@H](CCC(N)=O)NC(=O)C(C)(C)NC(=O)[C@@H](N)Cc1c[nH]cn1)[C@@H](C)O)[C@@H](C)O)C(C)C)[C@@H](C)O)C(C)C)C(=O)N[C@@H](CC(C)C)C(=O)N[C@@H](CCC(=O)O)C(=O)NC(C)(C)C(=O)N[C@@H](CCCCN)C(N)=O [Peptide 478] (H-H[Aib]QGTFTSDVSK[αMeF]LDTK([AEEA-AEEA-γGlu-C18 diacid])RAQDFVRWLLE[Aib]K-NH2),EC50,[1],0.19 nM
same,EC50,[2],0.00918 nM
same,% Relative Potency Ratio,[2],40.9
